Eight molecules from paper PMC10239758 (European journal of medicinal chemistry, 2023) can be followed below.

In one series the test system is Mtb strain H37Rv. The series is described as follows: Microplate Alamar Blue assay. In kind it is cell-based, Mycobacterium tuberculosis. Conditions: MABA, average of three measurements. On the technique in general: Resazurin is reduced to fluorescent resorufin, in cell work by metabolically active cells.
Series [1] can be described thus: Human liver microsomal stability. Conditions: human liver microsomes; for Remaining (NCF = 60 min): without the NADPH cofactor. (In general: Liver microsomes are vesicles of endoplasmic reticulum, rich in cytochrome P450 enzymes.)
A further series has as its system Mtb V4207. The series is described as follows: microbe, parasite or virus in culture. In kind it is cell-based. Conditions: Mycobacterium tuberculosis, V4207, read-out: Mtb MIC V4207/ DS.
Series [2] concerns clinically isolated strains of MDR/XDR-TB. The series is described as follows: microbe, parasite or virus in culture. In kind it is cell-based, Mycobacterium tuberculosis.
A further series concerns Vero cells. The series is described as follows: Cytotoxicity against Vero cells. Format: cell-based, African green monkey. The conditions noted are these: Chlorocebus sabaeus, read-out: Vero cells IC50, Vero cells.

Converted amounts (≈) assume the structure as drawn. Read-outs that look alike come from different tables or passages of the source.

In turn, `CC(C)c1ccc(-c2cccc(CN3CC[Si](C)(C)CC3)n2)cc1` [Compound 13, 1-((6-(4-Isopropylphenyl)pyridin-2-yl)methyl)-4,4-dimethyl-1,4-azasilinane] registered an MIC with Mtb strain H37Rv of 4 to 8 µg/mL.
As to `CC(C)c1ccc(-c2cc(CN3CC[Si](C)(C)CC3)ccn2)cc1` [Compound 17, 1-((2-(4-Isopropylphenyl)pyridin-4-yl)methyl)-4,4-dimethyl-1,4-azasilinane], the MIC with Mtb strain H37Rv lay within 4 to 8 µg/mL.
For `CC(C)c1ccc(-c2cc(CN3CC[Si](C)(C)CC3)ncn2)cc1` [Compound 27, 4-((4,4-Dimethyl-1,4-azasilinan-1-yl)methyl)-6-(4-isopropylphenyl)pyrimidine], the MIC against Mtb strain H37Rv lay within 4 to 8 µg/mL.
For `CC(C)c1ccc(-c2ccnc(CN3CCC4(CCCC4)CC3)c2)cc1` [Compound 37, 8-((4-(4-Isopropylphenyl)pyridin-2-yl)methyl)-8-azaspiro[4.5]decane], the “Remaining (NCF = 60 min)” value in series [1] is “stable”.
In general, IC50 refers to the point on the concentration scale where inhibition reaches its midpoint. As for `c1ccc(-c2ccc(-c3ccnc(CN4CCC5(CCCC5)CC4)c3)cc2)cc1` [Compound 62, 8-((4-([1,1'-Biphenyl]-4-yl)pyridin-2-yl)methyl)-8-azaspiro[4.5]decane], the results for the MIC (in the series with Mtb V4207; in series [2]; in series [2] (Mycobacterium tuberculosis)) were 0.0039 µg/mL (≈ 0.0102 µM), 0.0039 to 0.0625 µg/mL and 0.004 to 0.063 µg/mL (≈ 0.0105 to 0.165 µM), respectively. Besides, in series [1], the “Remaining (NCF = 60 min)” value is “stable”. In the series on Vero cells, the IC50 is no less than 16 µg/mL.
In the case of `c1cc(-c2ccc(-c3ccoc3)cc2)cc(CN2CCC3(CCCC3)CC2)n1` [Compound 68, 8-((4-(4-(Furan-3-yl)phenyl)pyridin-2-yl)methyl)-8-azaspiro[4.5]decane], in series [1], the “Remaining (NCF = 60 min)” value was “stable”.
On to `O=C(O)Cc1ccccc1Nc1c(Cl)cccc1Cl` [Diclofenac, reference compound], for which, in series [1] (with NADPH, after 60 min), the “Remaining (T = 60 min)” value is given as 0.4%. In addition, in series [1], the “Remaining (NCF = 60 min)” value is listed as “stable”.
As for `C[C@]12CC[C@H]3[C@@H](CCC4=CC(=O)CC[C@@]43C)[C@@H]1CC[C@@H]2O` [Testosterone, reference compound], in series [1], the “Remaining (NCF = 60 min)” value is recorded as “stable”.
